PMC10845145, “Synergistic Effect of Brevetoxin BTX-3 and Ciguatoxin CTX3C in Human Voltage-Gated Nav1.6 Sodium Channels” (Chemical Research in Toxicology, 2023)
Like-named read-outs stand apart in the source and are kept apart here.

What was measured:
[1] = molecular target: rat brain sodium channels; conditions: cited from earlier work; for Ki: binding affinity to rat brain sodium channels, read-out: inhibitory constant (ki)
[2] = molecular target: T1, human Nav1.6 voltage-gated sodium channels (Homo sapiens, UniProt Q9UQD0); experiment: Whole-cell patch-clamp recording of sodium current activation (peak INa, activation voltage) in HEK293 cells transfected with Nav1.6; assay type: cell-based; conditions: for +10 nM BTX-3 normalized INa (max) / normalized INa (max): control = –1; for normalized INa (max): CTX3C alone; for shift in the activation voltage for CTX3C: vs control
T1 construct: host or cells: HEK293
Protocol: (§1) The human embryonic kidney cell line (HEK293) transfected with the α subunit of the Nav1.6 sodium channel isoform was kindly provided, under a material transfer agreement, by GlaxoSmithKline R&D (Stevenage, U.K). The cells were cultured in Dulbecco’s modified Eagle’s medium (DMEM)/F12 medium enriched with glutamax, nonessential amino acid solution (MEM, Gibco, 1% w/v), 10% fetal bovine serum, and 0.4 mg/mL Geneticin (G418, Gibco) and maintained at 37 °C in a humidified 95% […]/5% CO2 atmosphere until they reached 80% of confluence, replacing the medium every 2 days. The cells were subcultured in 12-well plates in glass coverslips at a density of 60,000 cells/mL. Twenty-four or 48 h before electrophysiological recordings, the cells were placed at 30 °C to maximize sodium channel expression.[32]
(§2) For electrophysiological recordings, glass coverslips with cells were placed in a recording chamber with 0.5 mL Lockés buffer as the extracellular solution. Recording electrodes were fabricated with borosilicate glass microcapillaries (1.5 outer diameter) and had resistances ranging from 4 to 10 MΩ. Pipettes were filled with an intracellular solution containing 120 mM CsF, 10 mM EGTA, 10 mM HEPES, and 15 mM NaCl and pH adjusted to 7.25 with CsOH. Voltage-gated sodium currents were recorded at room temperature 5 min after reaching the whole-cell configuration with a Multiclamp 700B amplifier and digitalized with the Digidata 1440A (both from Axon Instruments, California, U.S.A.) maintaining the cells at a holding potential (Vhold) of −55 mV. Signals were sampled at 50 kHz after low-pass Bessel filtering at 10 kHz. Compensation circuitry was used to reduce the series resistance by at least 70%. To record the activation of VGSCs, voltage steps from −80 to +80 mV in 10 mV step increments were applied prior to a test pulse of −90 mV. Fast inactivation was measured at 0 mV after prior test pulses of 300 ms duration ranging from −100 to 0 mV in 10 mV voltage step increments after maintaining the holding potential at −90 mV during 10 ms.
(§3) All data are expressed as means ± SEMs of n determinations. Data analysis was performed using GraphPad Prism 8. Statistical comparisons were performed using one-way analysis of variance (ANOVA), followed by post hoc Dunnett̀s tests. p values ≤ 0.05 were considered statistically significant, and IC50 values were determined by fitting the data with a log (inhibitor) vs normalized response model.
(§4) The combination index (CI) was calculated with the Chou–Talalay equation[33] following the formula [drawing 1] 1 where (DX)1 is the IC50 value of CTX3C alone, (DX)2 the IC50 value of BTX-3 alone, and D1 and D2 are the IC50 values of CTX3C and BTX-3, respectively, in combination. According to the Chou–Talalay method, additivity is established if CI = 1, synergism if CI < 1, and antagonism if CI > 1.

[3] = molecular target: T1, human Nav1.6 voltage-gated sodium channels; experiment: Whole-cell patch-clamp recording of fast inactivation of sodium channels in HEK293 cells transfected with Nav1.6; assay type: cell-based; conditions: for IC50: read-out: IC50, hyperpolarizing shift in the inactivation voltage
Protocol: as §1, §2, §3, §4

T1 sequence (Q9UQD0 whole entry): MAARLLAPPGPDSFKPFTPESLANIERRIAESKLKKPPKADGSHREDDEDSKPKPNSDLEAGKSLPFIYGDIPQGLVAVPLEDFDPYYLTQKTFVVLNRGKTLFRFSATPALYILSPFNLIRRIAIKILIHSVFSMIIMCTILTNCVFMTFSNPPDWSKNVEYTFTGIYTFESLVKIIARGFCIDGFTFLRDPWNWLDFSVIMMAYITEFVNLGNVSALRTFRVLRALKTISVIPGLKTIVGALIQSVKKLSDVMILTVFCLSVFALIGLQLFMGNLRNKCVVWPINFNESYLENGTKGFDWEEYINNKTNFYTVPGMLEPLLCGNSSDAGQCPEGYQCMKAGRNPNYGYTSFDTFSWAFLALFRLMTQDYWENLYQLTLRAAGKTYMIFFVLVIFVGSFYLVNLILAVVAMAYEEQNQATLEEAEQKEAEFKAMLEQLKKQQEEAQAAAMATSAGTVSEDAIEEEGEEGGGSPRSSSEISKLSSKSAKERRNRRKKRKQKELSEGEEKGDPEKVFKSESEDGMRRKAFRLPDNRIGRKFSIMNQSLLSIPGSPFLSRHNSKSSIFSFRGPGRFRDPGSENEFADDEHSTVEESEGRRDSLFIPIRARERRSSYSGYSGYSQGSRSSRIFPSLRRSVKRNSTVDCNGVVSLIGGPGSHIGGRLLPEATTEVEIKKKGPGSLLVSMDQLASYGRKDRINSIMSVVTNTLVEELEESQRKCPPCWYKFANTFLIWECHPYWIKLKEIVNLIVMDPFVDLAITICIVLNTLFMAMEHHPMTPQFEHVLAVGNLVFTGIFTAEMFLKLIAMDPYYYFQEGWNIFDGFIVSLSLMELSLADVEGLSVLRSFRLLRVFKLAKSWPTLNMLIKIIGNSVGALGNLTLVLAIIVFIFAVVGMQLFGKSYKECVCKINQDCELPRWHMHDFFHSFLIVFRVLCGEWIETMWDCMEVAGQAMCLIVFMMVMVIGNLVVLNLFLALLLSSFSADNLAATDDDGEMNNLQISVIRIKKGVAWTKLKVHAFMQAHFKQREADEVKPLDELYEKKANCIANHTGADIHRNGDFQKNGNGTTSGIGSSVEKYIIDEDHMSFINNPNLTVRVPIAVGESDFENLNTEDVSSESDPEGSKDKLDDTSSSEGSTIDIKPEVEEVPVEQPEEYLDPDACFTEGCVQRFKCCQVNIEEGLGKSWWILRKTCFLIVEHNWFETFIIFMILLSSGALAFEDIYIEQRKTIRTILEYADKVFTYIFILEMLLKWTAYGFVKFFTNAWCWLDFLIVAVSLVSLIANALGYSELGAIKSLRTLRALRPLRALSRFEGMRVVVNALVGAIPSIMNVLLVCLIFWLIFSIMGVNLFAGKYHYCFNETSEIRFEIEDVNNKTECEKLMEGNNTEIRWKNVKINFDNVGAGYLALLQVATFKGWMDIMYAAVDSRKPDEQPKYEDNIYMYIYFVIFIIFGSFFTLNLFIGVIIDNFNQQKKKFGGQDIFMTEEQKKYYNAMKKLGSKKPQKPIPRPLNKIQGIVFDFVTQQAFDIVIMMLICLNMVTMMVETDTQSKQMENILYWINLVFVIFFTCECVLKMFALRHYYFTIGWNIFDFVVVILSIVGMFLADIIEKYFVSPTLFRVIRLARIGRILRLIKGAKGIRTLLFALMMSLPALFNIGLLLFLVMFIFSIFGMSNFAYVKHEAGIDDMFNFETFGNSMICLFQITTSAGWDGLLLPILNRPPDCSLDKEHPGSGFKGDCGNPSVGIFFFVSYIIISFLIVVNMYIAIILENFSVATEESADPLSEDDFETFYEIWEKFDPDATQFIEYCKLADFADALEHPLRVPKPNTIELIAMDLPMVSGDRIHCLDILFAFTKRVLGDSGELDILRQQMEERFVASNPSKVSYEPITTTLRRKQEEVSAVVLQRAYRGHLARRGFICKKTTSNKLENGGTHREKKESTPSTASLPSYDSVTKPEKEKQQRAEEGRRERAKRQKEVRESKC

C[C@@H]1C[C@@H]2O[C@@H]3[C@@H](C)[C@H](O)[C@@H]4O[C@]5(C[C@H](O)CO5)[C@@H](C)[C@H](C)[C@H]4O[C@H]3C[C@H]2O[C@H]2C[C@H]3O[C@H]4C/C=C\C[C@H]5O[C@H]6C=C[C@H]7O[C@H]8[C@H](O)[C@H]9O[C@@H](/C=C/[C@H](O)CO)C=CC[C@@H]9O[C@@H]8C[C@@H]7O[C@@H]6C=C[C@@H]5O[C@@H]4C[C@@H](O)[C@]3(C)O[C@@H]2C1 [ciguatoxin-1B]
Ki [1]: 0.041 nM | ki difference relative to BTX-1 ([1]; ciguatoxin-1B vs BTX-1): more than 50 fold

C=C(CO)CC1CC(O)C2(C)OC3CC4OC5CC6(C)OC7(C)CCC8OC9CC%10(C)OC%11C(C)=CC(=O)OC%11CC%10OC9CC(C)C8OC7CC6OC5(C)C/C=C\C4OC3CC2O1 (stereo not shown) [BTX-3, brevetoxin 3]
agonist profile on the channels (negative displacement in the activation voltage) [2]: partial agonist | decrease in the maximum INa at −20 mV [2]: 21.9 ± 10.9% | decrease of peak sodium current amplitude [2]: 31.2 ± 15% | increased potency on the activation voltage after combination [2]: 10 times | maximum INa at −20 mV [2]: −2887.70 ± 402.0 pA | IC50 ([2]; read-out: IC50, negative shift in the activation voltage): 46.2 nM | IC50 ([2]; read-out: IC50, percent inhibition of the peak inward sodium currents (INa)): 202 nM | IC50 [3]: 4700 nM

CC1CC2OC3C(CC2OC2CC4OC5CC=CCC6OC7C=CC8OC9C(CC8OC7CC=CC6OC5CC(O)C4(C)OC2C1)OC1CC=CCOC1C9O)OC1C(C)C(C)C2(CCCO2)OC1C(O)C3C (stereo not shown) [CTX3C, ciguatoxin 3C]
agonist profile on the channels (negative displacement in the activation voltage) [2]: full agonist | effect on maximum INa peak ([2]; 0.17 nM CTX3C): a decrease of the maximum INa peak was elicited | effect on the activation voltage ([2]; 0.17 nM CTX3C alone): no changes in the activation voltage were observed | +10 nM BTX-3 normalized INa (max) ([2]; CTX3C 0.0001 nM in the presence of 10 nM BTX-3): –0.89 ± 0.08 | +10 nM BTX-3 normalized INa (max) ([2]; CTX3C 0.001 nM in the presence of 10 nM BTX-3): –0.89 ± 0.13 | +10 nM BTX-3 normalized INa (max) ([2]; CTX3C 0.01 nM in the presence of 10 nM BTX-3): –0.88 ± 0.13 | +10 nM BTX-3 normalized INa (max) ([2]; CTX3C 0.1 nM in the presence of 10 nM BTX-3): –0.90 ± 0.11 | +10 nM BTX-3 normalized INa (max) ([2]; CTX3C 1 nM in the presence of 10 nM BTX-3): –0.68 ± 0.09 | +10 nM BTX-3 normalized INa (max) ([2]; CTX3C 5 nM in the presence of 10 nM BTX-3): –0.46 ± 0.09 | normalized INa (max) ([2]; 0.0001 nM): –0.79 ± 0.05 | normalized INa (max) ([2]; 0.001 nM): –0.62 ± 0.08 | normalized INa (max) ([2]; 0.01 nM): –0.66 ± 0.09 | normalized INa (max) ([2]; 0.1 nM): –0.63 ± 0.09 | normalized INa (max) ([2]; 1 nM): –0.27 ± 0.07 | normalized INa (max) ([2]; 5 nM): –0.32 ± 0.04 | activation voltage for CTX3C ([2]; [CTX3C] 0.0001 nM): –30.0 ± 0 mV | shift in the activation voltage for CTX3C ([2]; [CTX3C] 0.0001 nM): 0.71 ± 5.4 mV | activation voltage for CTX3C ([2]; [CTX3C] 0.001 nM): –30.0 ± 0 mV | activation voltage for CTX3C ([2]; [CTX3C] 0.01 nM): –33.3 ± 3.3 mV | shift in the activation voltage for CTX3C ([2]; [CTX3C] 0.01 nM): –2.62 ± 5.6 mV | activation voltage for CTX3C ([2]; [CTX3C] 0.1 nM): –39.0 ± 1.8 mV | shift in the activation voltage for CTX3C ([2]; [CTX3C] 0.1 nM): –8.29 ± 3.3 mV | activation voltage for CTX3C ([2]; [CTX3C] 1 nM): –46.7 ± 2.9 mV | activation voltage for CTX3C ([2]; [CTX3C] 5 nM): –51.67 ± 4.8 mV | shift in the activation voltage for CTX3C ([2]; [CTX3C] 5 nM): –20.95 ± 4.8 mV | peak sodium current at −10 mV ([2]; after bath application of 1 nM CTX3C, control −1156 ± 189 pA): −692 ± 372 pA | increased potency on the activation voltage after combination ([2]; combination of CTX3C and BTX-3 vs each alone): 10 times | IC50 ([2]; single toxin alone, read-out: IC50, negative shift in the activation voltage): 2.58 nM | IC50 ([2]; single toxin alone, read-out: IC50, percent inhibition of the peak inward sodium currents (INa)): 0.173 nM | inactivation voltage for CTX3C (V1/2) ([3]; [CTX3C] 0.001 nM): –50.1 ± 4.1 mV | inactivation voltage for CTX3C (V1/2) ([3]; [CTX3C] 0.01 nM): –47.4 ± 1.4 mV | inactivation voltage for CTX3C (V1/2) ([3]; [CTX3C] 0.1 nM): –53.4 ± 6.8 mV | inactivation voltage for CTX3C (V1/2) ([3]; [CTX3C] 1 nM): –54.9 ± 5 mV | IC50 ([3]; single toxin alone): 306 nM | Ki [1]: 0.47 nM | higher affinity than that of BTX-3s ([1]; binding to VGSC, at concentrations of 1 nM of the compounds): 20 fold
